Here are results for 14 compounds from patent publication US20040043959A1, “Combination therapies for treating methylthioadenosine phosphorylase deficient cells” (priority 2002, published 2004).

Series [1] concerns the target T1, human membrane folate-binding protein (mFBP) (Homo sapiens, UniProt P15328).
T1 construct: mFBP prepared from cultured KB cells (human nasopharyngeal carcinoma cells); endogenous in cells
Kind of series: competitive binding assay against 3H-folic acid with mFBP prepared from KB cells. The text has this:
The dissociation constant (Kd) of the preferred inhibitors of the present invention for human membrane folate-binding protein (mFBP) can be determined in a competitive binding assay using mFBP prepared from cultured KB cells (human nasopharyngeal carcinoma cells) as disclosed in U.S. Pat. No. 5,646,141, the disclosures of which is hereby incorporated by reference in its entirety.
Human membrane folate binding protein can be obtained from KB cells by methods well known in the art. KB cells are washed, sonicated for cell lysis and centrifuged to form pelleted cells. The pellet can then be stripped of endogenous bound folate by resuspension in acidic buffer (KH2PO4—KOH and 2-mercaptoethanol) and centrifuged again. The pellet is then resuspended and the protein content quantitated using the Bradford method with bovine serum albumin (BSA) as standard.
Disassociation constants are determined by allowing, the test inhibitor to compete against ^3H-folic acid for binding to mFBP. Reaction mixtures are designed to generally contain mFBP, ^3H-folic acid, and various concentrations of the subject test inhibitor in acidic buffer (KH2PO4—KOH and 2-mercaptoethanol). The competition reaction is typically conducted at 25°. Because of the slow nature of release of bound ^3H-folic acid, the test inhibitor may be prebound prior to addition of bound ^3H-folic acid, after which the reaction should be allowed to equilibriate. The full reaction mixtures then should be drawn through nitrocellulose filters to isolate the cell membranes with bound ^3H-folic acid. The trapped mFBP are then washed and measured by scintillation counting. The data can then be nonlinearly fitted as described above in determining Ki. The mFBP Kd for ^3H-folic acid, used for calculating the competitor Kd, can be obtained by directly titrating mFBP with ^3H-folate. The mFBP Kd can then be used to calculate the competitor Kd by nonlinear fitting of the data to an equation for tight-binding Kc. Table 1 below provides the Kd values of several GARFT inhibitors using the assay described above.

Series [2] concerns MTAP-competent NCI-H460 cells. The series can be described thus: MTT growth inhibition by Compound 1 or 3 with and without MTA. The class given is cell-based, human. The settings on record: FIG. 7. The procedure:
Cells were plated in columns 2-12 of a 96-well microtiter plate, with column 2 designated as the vehicle control. The same volume of medium was added to column 1. Column 1 was designated as the media control. After a 4-hour incubation, the cells were treated with Compound 7, with or without a non-growth inhibitory concentration of MTA, in quadruplicate wells. […] MTT (4,5-dimethylthiazol-2-yl)-2,5-diphenyl tetrazolium bromide; Sigma, St. Louis, Mo.) was added to a final concentration of 0.25-1 mg/ml in each well, and the plates were incubated for 4 hours. The liquid was removed from each well. DMSO was added to each well, then the plates were vortexed slowly in the dark for 7-20 minutes. The formazin product was quantified spectrophotometrically at […] on a Molecular Devices Vmax™ kinetic microplate reader.

Another series has as its target T2, Human MTAP (Homo sapiens, UniProt Q13126).
T2 construct: six-histidine tag (His6) (N); made in house; host or cells: E. coli BL21 DE3
T2 sequence (Q13126 1-283): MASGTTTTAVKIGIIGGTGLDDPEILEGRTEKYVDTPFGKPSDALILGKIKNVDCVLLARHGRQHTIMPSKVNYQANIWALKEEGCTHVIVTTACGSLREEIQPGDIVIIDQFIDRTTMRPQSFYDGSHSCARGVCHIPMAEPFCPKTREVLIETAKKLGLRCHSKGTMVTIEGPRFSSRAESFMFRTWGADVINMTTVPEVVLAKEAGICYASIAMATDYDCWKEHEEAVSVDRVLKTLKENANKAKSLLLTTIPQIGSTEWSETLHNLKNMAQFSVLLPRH
The series can be described thus: MTAP substrate assay, coupled spectrophotometric (adenine, xanthine oxidase). Particulars: 2 nM MTAP; for activity at 50 µM: 10 min, read-out: MT-A—50: initial velocity as a percentage of the initial velocity with MTA as substrate; for MT-A—10: initial velocity as a percentage of the initial velocity with MTA as substrate: compound 10 uM, relative to MTA at 10 uM. Format: biochemical. The method, boiled down:
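Detection was xanthine oxidase-coupled (0.8 units/ml), reading adenine-derived absorbance at 305 nm over 10 min in potassium phosphate/DTT buffer at 37° C, with N-His6 enzyme purified from E. coli.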

The target of a further series is T3, AICARFT (Homo sapiens, UniProt P31939).
T3 construct: the catalytic domain of the human enzyme and its substrate (i.e., GARFT and GAR, or AICARFT and AICAR)
The settings on record: cited from earlier work.

Series [3] deals with human pancreatic BxPC-3 tumor. Kind of series: antitumor activity in MTAP-deficient xenograft model. Format: in vivo, mice. The settings on record: 50 mg/kg MTA bid x8 alone. The source says:
To evaluate the in vivo effect of combination therapy on known human MTAP-deficient tumors, an MTAP-deficient cell line was introduced to mice to produce xenograft MTAP-deficient tumors. 108 BALB/c/nu/nu female mice bearing subcutaneous tumor fragments produced from the MTAP-deficent BxPC-3 cell line were housed 3 per cage with free access to food and water. Mice were fed a folate-deficient chow (#Td84052, Harlan Teklad, Madison, Wis.) beginning 14 days prior to initiation of drug treatment and continuing throughout the study. After randomization by tumor volume into 8 treatment groups and assigning the remaining 12 mice to group 7, beginning on the twenty-first day after tumor implant mice were dosed with Compound 7 daily for 4 days, and with MTA or vehicle twice-a-day for 8 days, in the amounts indicated in Table 7 below. The vehicle for both compounds was 0.75% sodium bicarbonate in water (7.5% NaHCO3 solution (Cellgro #25-035-4, Mediatech, Herndon, Va.) diluted 1:10 in sterile water for injection (Butler, Columbus, Ohio)) under pH adjusted to 7.0-7.4. Solutions were sterilized by filtration through 0.22 micron polycarboniate filters (Cameo 25GAS, Micron Separations Inc., Westboro, Mass.). Tumor volumes and animal weight loss, which is an indicator of toxicity, were recorded daily for 14 days at the same time of day, then on a Monday, Wednesday, Friday schedule for the remainder of the study.

Series [4] concerns MTAP-competent NCI-H460 cells. Kind of series: colony formation cytotoxicity with varying duration of MTA exposure. Format: cell-based, human. Particulars: MTA for at least 48 hours, at least 1 day after Compound 7 exposure, FIG. 8. The procedure: (§1) Mid-log-phase cells were trypsinized and placed in 60 mm tissue culture dishes at 200 or 250 cells per dish. Cells from each cell line were left to attach for 4 hours and then were treated with Compound 7, with or without MTA or dcSAMe, in 5-fold serial dilutions for 6 or 24 hours. For data shown in FIGS. 5a and 5b, cells were exposed to drug(s) for 6 hours only. For data shown in FIG. 6, cells were exposed to Compound 7 for 24 hours and to MTA continuously for the duration of colony growth (i.e. 24 hours and thereafter). Cells were next washed with PBS, and then fixed and stained with 1% w/v crystal violet in 25% methanol (Sigma, St. Louis, Mo.). After washing the dishes 2-3 times. with deionized water, the colonies were counted. Triplicate dishes were used for each drug concentration.
Cytoxicity data for combination therapy of Compound 7 with MTA was collected using MTAP-competent […] cells. NCI-H460 cells were cultured, incubated and stained as described in Example 3(B) above, but with an incubation time of up to eight days.

The subject of series [5] is BxPC-3 cells transfected with the MTAP gene. Kind of series: colony formation cytotoxicity, 6 h drug exposure. The class given is cell-based, human. Particulars: 1.5 μM Compound 7 with 50 μM anti-toxicity agent, FIG. 5a. The procedure: (§2) Cytoxicity data was collected using BxPC-3, PANC-1 and HT-1080 cells which were cultured in Iscove's medium supplemented with 10% dialyzed, horse serum, 5% nonessential amino acids and 5% sodium pyruvate.
as §1

The next series relates to MTAP-deficient BxPC-3. The series can be described thus: colony formation cytotoxicity, 6 h drug exposure. The class given is cell-based, human. Particulars: Compound 7 with 50 μM anti-toxicity agent, FIG. 5b. How it is done: as §2, §1
Setting [6] is: compound 50 uM, relative to MTA at 50 uM.

T1 sequence (P15328 25-234): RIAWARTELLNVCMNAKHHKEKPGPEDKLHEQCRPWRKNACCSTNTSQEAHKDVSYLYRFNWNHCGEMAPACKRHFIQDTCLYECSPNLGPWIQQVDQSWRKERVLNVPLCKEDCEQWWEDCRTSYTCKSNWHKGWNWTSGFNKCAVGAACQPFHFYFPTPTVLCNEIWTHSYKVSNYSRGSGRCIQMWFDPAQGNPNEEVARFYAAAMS
T3 sequence (P31939 199-592 limits assumed): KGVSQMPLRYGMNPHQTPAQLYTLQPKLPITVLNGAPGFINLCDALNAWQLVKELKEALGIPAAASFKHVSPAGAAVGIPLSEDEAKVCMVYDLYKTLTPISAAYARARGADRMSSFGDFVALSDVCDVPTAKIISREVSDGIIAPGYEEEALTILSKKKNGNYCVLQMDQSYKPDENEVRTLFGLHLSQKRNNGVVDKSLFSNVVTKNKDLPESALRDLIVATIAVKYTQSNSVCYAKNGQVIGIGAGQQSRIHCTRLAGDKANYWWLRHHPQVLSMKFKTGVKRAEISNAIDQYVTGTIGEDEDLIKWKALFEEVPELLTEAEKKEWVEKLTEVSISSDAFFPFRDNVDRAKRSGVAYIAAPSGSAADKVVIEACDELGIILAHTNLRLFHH

For the compound `Cc1cc(C(=O)N[C@@H](CCC(=O)O)C(=O)O)sc1CC[C@H]1CNc2nc(N)[nH]c(=O)c2S1` (single isomer, unassigned) [Compound 3], the Kd in series [1] turned out to be 0.0042 nM. The “factor by which MTA reduced the growth inhibitory activity” value in series [2] is reported as “greater than 5”. Regarding `Nc1ncnc2c1ncn2[C@@H]1O[C@H](CSc2nccn2Cc2ccccc2)[C@@H](O)[C@H]1O` [2(G)(160), (2R, 3R, 4S, 5S)-2-(6-amino-9H-purin-9-yl)-5-{[(1-benzyl-1H-imidazol-2-yl)thio]methyl}tetra-hydrofuran-3,4-diol], the activity at 50 µM at Human MTAP (setting [6]) worked out at 17%. Also, at Human MTAP, the “MT-A—10: initial velocity as a percentage of the initial velocity with MTA as substrate” value came out at 12%. As to `CNC(=O)c1ccccc1SC[C@H]1O[C@@H](n2cnc3c(N)ncnc32)[C@H](O)[C@@H]1O` [2(G)(161), 2-({[(2S, 3S, 4R, 5R)-5-(6-amino-9H-purin-9-yl)-3,4-dihydroxytetrahydro-furan-2-yl]methyl}thio)-N-methylbenzamide], the activity at 50 µM at Human MTAP (setting [6]) was 28%. Further, the “MT-A—10: initial velocity as a percentage of the initial velocity with MTA as substrate” value at Human MTAP amounted to 14.5%. As for `CCCc1cc(O)nc(SC[C@H]2O[C@@H](n3cnc4c(N)ncnc43)[C@H](O)[C@@H]2O)n1` [2(G)(162), (2R, 3R, 4S, 5S)-2-(6-amino-9H-purin-9-yl)-5-{[(4-hydroxy-6-propylpyrimidin-2-yl)-thio]methyl}tetrahydro-furan-3,4-diol], at Human MTAP (setting [6]), the activity at 50 µM was determined as 39.5%. In addition, the “MT-A—10: initial velocity as a percentage of the initial velocity with MTA as substrate” value at Human MTAP was found to be 29%.

With `Nc1ncnc2c1ncn2[C@@H]1O[C@H](CSc2nc3cc(Cl)ccc3o2)[C@@H](O)[C@H]1O` [2(G)(163), (2R, 3R, 4S, 5S)-2-(6-amino-9H-purin-9-yl)-5-{[(5-chloro-1,3-benz-oxazol-2-yl)thio]methyl}-tetrahydrofuran-3,4-diol], the activity at 50 µM at Human MTAP (setting [6]) is 26.5%. Moreover, the “MT-A—10: initial velocity as a percentage of the initial velocity with MTA as substrate” value on Human MTAP came to 12%. The like results for `COC(=O)c1cnc(SC[C@H]2O[C@@H](n3cnc4c(N)ncnc43)[C@H](O)[C@@H]2O)n1C` [2(G)(164), Methyl 2-({[(2S, 3S, 4R, 5R)-5-(6-amino-9H-purin-9-yl)-3,4-dihydroxy-tetrahydrofuran-2-yl]methyl}thio)-1-methyl-1H-imidazole-5-carboxylate] were, in that order, 29% and 13.5%. As to `CC(C)(C)c1cc(O)nc(SC[C@H]2O[C@@H](n3cnc4c(N)ncnc43)[C@H](O)[C@@H]2O)n1` [2(G)(165), (2R, 3R, 4S, 5S)-2-(6-amino-9H-purin-9-yl)-5-{[(4-tert-butyl-6-hydroxypyrimidin-2-yl)thio]methyl}tetrahydro-furan-3,4-diol], the activity at 50 µM at Human MTAP (setting [6]) was 33.5%. Further, the “MT-A—10: initial velocity as a percentage of the initial velocity with MTA as substrate” value at Human MTAP amounted to 25%. As for `Nc1nc(N)c(SCCc2ccc(C(=O)N[C@@H](CCC(=O)O)C(=O)O)s2)c(=O)[nH]1` [Compound 1, N-[5-(2[(2,6-diamino-4(3H)-oxopyrimidin5yl)thio]ethyl)thieno-2-yl]-L-glutamic acid], the “factor by which MTA reduced the growth inhibitory activity” value in series [2] is reported as 3. Also, the “Ki (specific inhibitor of AICARFT)” value on AICARFT was “micromolar”. Consider `Cc1cc(C(=O)N[C@@H](CCC(=O)O)C(=O)O)sc1CCCSc1c(N)nc(N)[nH]c1=O` [Compound 2], for which, in series [1], binding was put at a Kd of 136 nM. On to `Cc1cc(C(=O)N[C@@H](CCC(=O)O)C(=O)O)sc1CC[C@@H]1CNc2nc(N)[nH]c(=O)c2S1` [Compound 4, 4-[2-(2-Amino-4-oxo-4,6,7,8-tetraydro-3H-pyrimido[5,4-b][1,4]thiazin-6-yl)-(R)-ethyl]-3-methyl-2-thienoyl-5-amino-L-glutamic acid], for which, in series [1], the affinity, expressed as Kd, was 1 nM. The compound `Cc1cc(C(=O)N[C@@H](CCC(=O)O)C(=O)O)sc1CC[C@H]1CNc2nc(N)[nH]c(=O)c2S1` [Compound 5, 4-[2-(2-Amino-4-oxo-4,6,7,8-tetrahydro-3H-pyrimido[5,4-b][1,4]thiazin-6-yl)-(S)-ethyl]-3-methyl-2-thienoyl-5-amino-L-glutamic acid] displayed a Kd in series [1] of 0.71 nM. For the compound `CSC[C@H]1O[C@@H](n2cnc3c(N)ncnc32)[C@H](O)[C@@H]1O` [MTA, methylthioadenosine], in series [3], the “Time to 1000 mm^3 (days) Mean” value stood at 22.6 days and the “Time to 1000 mm^3 (days) Median” value was 21.4 days. In series [4], the “protection from Compound 7-induced cytotoxicity” value is reported as “fully protected cells from Compound 7-induced cytotoxicity”. In series [5], this compound registered a cell survival of 100%.

Take `C[S+](CCCN)CC1OC(n2cnc3c(N)ncnc32)C(O)C1O` (stereo not drawn) [dcSAMe, decarboxylated S-adenosylmethionine]: the cell survival in series [5] was 100%. Further, the “effect on cell survival” value with MTAP-deficient BxPC-3 is listed as “increased cell survival by less than observed for the MTAP competent cells”. As for “(2R, 3R, 4S, 5S)-2-(6- amino-9H-purin-9-yl)-5- {[(5-chloro-1H- yl)thio]methyl}tetrahydro- furan-3,4-diol [2(G)(5)]”, the “MT-A—10: initial velocity as a percentage of the initial velocity with MTA as substrate” value at Human MTAP turned out to be 5%. In addition, the “MT-A—50: initial velocity as a percentage of the initial velocity with MTA as substrate” value on Human MTAP (setting [6]) amounted to 2%.
